target: recombinant human integrin αVβ6 (Homo sapiens (Human), UniProt P06756+P18564); experiment: Solid phase integrin αVβ6 binding assay; settings: inhibition of recombinant TGFβ1 LAP binding to coated integrin, IC50 presented in four ranges, read-out: αvβ6 Inhibition IC50 (nM) - range
Summary of the method: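 Plates coated with recombinant human αVβ6 (2 μg/mL) and blocked; compounds competed with TGFβ1 LAP (0.67 μg/mL) in Mn2+ (0.5 mM)/BSA/sucrose TBS for 2 h at 25° C. Bound LAP detected by biotin anti-LAP and peroxidase-streptavidin; IC50 by four-parameter logistic fit.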

recombinant human integrin αVβ6, sequence (P06756 31-992): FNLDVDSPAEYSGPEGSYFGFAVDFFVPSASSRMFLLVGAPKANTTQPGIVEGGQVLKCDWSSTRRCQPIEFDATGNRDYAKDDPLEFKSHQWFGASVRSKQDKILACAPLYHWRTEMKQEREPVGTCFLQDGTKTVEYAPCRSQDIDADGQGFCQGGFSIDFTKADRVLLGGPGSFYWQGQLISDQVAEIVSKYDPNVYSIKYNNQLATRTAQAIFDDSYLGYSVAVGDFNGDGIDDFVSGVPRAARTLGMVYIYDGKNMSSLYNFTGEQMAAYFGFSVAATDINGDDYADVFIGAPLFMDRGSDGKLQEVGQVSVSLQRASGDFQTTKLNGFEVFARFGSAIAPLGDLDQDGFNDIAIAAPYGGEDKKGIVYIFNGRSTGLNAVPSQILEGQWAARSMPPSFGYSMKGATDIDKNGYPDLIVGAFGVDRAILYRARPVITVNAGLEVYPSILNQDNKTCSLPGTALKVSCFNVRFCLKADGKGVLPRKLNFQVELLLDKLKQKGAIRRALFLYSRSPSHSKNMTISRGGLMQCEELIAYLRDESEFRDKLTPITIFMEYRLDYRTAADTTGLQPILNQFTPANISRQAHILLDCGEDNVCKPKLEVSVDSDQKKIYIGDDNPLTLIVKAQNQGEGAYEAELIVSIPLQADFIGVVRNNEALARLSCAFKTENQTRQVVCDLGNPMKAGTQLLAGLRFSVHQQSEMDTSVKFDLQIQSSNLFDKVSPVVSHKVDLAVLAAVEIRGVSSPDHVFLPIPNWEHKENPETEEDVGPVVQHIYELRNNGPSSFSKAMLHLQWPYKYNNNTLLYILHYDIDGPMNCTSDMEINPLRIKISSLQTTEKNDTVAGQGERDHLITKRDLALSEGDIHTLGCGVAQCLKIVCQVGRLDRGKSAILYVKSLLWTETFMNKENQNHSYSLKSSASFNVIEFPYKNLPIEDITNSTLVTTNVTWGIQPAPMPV
recombinant human integrin αVβ6, sequence (P18564 22-707): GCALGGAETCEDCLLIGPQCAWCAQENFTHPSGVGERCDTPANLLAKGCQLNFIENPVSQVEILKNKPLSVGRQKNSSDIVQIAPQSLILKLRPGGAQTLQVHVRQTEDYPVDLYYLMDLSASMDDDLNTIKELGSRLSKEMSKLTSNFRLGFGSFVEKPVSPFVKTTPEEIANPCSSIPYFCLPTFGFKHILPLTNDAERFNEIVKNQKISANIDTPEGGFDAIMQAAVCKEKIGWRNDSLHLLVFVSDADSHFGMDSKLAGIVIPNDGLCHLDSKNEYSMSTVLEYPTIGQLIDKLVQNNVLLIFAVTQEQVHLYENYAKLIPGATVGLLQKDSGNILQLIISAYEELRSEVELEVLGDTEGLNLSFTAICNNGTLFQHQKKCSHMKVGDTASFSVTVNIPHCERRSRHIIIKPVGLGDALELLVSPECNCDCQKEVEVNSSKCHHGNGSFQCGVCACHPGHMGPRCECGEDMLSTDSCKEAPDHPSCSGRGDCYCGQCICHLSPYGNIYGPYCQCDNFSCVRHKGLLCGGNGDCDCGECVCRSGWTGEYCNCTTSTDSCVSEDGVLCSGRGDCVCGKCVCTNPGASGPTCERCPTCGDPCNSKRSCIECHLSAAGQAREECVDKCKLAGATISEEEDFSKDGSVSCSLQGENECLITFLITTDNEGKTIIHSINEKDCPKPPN

Row | Structure (SMILES) | IC50 [nM]
1 | CO[C@H](C)CN(CCCCc1ccc2c(n1)NCCC2)CC[C@H](Nc1ccnc(-c2ccccc2)n1)C(=O)O [Compound 73, (S)-4-(((R)-2-methoxypropyl) (4-(5,6,7,8-tetrahydro-1,8-naphthyridin-2-yl)butyl)amino)-2-((2-phenylpyrimidin-4-yl)amino) butanoic Acid] | < 50
2 | CO[C@H](C)CN(CCCCc1ccc2c(n1)NCCC2)CC[C@H](Nc1ncnc2c1cnn2C)C(=O)O [Compound 74, (S)-4-(((R)-2-methoxypropyl) (4-(5,6,7,8-tetrahydro-1,8-naphthyridin-2-yl)butyl)amino)-2-((1-methyl-1H-pyrazolo[3,4-d]pyrimidin-4-yl)amino) butanoic Acid] | < 50
3 | O=C(O)[C@H](CCN(CCO)CCCCc1ccc2c(n1)NCCC2)Nc1ncnc2ccccc12 [Compound 75, (S)-4-((2-hydroxyethyl) (4-(5,6,7,8-tetrahydro-1,8-naphthyridin-2-yl)butyl)amino)-2-(quinazolin-4-ylamino) butanoic Acid] | < 50
4 | CO[C@H](C)CN(CCCCc1ccc2c(n1)NCCC2)CC[C@H](Nc1nccnc1C#N)C(=O)O [Compound 76, (S)-2-((3-cyanopyrazin-2-yl)amino)-4-(((R)-2-methoxypropyl) (4-(5,6,7,8-tetrahydro-1,8-naphthyridin-2-yl)butyl)amino) butanoic Acid] | < 50
5 | CO[C@H](C)CN(CCCCc1ccc2c(n1)NCCC2)CC[C@H](Nc1cc(-n2cccn2)ncn1)C(=O)O [Compound 77, (S)-2-((6-(1H-pyrazol-1-yl)pyrimidin-4-yl)amino)-4-(((R)-2-methoxypropyl) (4-(5,6,7,8-tetrahydro-1,8-naphthyridin-2-yl)butyl)amino) butanoic Acid] | < 50
6 | CO[C@H](C)CN(CCCCc1ccc2c(n1)NCCC2)CC[C@H](Nc1ncc(F)cn1)C(=O)O [Compound 78, (S)-2-((5-fluoropyrimidin-2-yl)amino)-4-(((R)-2-methoxypropyl) (4-(5,6,7,8-tetrahydro-1,8-naphthyridin-2-yl)butyl)amino) butanoic Acid] | < 50
7 | CO[C@H](C)CN(CCCCc1ccc2c(n1)NCCC2)CC[C@H](Nc1ncnc2cn[nH]c12)C(=O)O [Compound 79, (S)-2-((1H-pyrazolo[4,3-d]pyrimidin-7-yl)amino)-4-(((R)-2-methoxypropyl) (4-(5,6,7,8-tetrahydro-1,8-naphthyridin-2-yl)butyl)amino) butanoic Acid] | < 50
8 | CO[C@H](C)CN(CCCCc1ccc2c(n1)NCCC2)CC[C@H](Nc1cc(-c2ccccc2)ncn1)C(=O)O [Compound 80, (S)-4-(((R)-2-methoxypropyl) (4-(5,6,7,8-tetrahydro-1,8-naphthyridin-2-yl)butyl)amino)-2-((6-phenylpyrimidin-4-yl)amino) butanoic Acid] | < 50
9 | Cn1ncc2c(N[C@@H](CCN(CCCCc3ccc4c(n3)NCCC4)CCOc3ccccc3)C(=O)O)ncnc21 [Compound 82, (S)-2-((1-methyl-1H-pyrazolo[3,4-d]pyrimidin-4-yl)amino)-4-((2-phenoxyethyl) (4-(5,6,7,8-tetrahydro-1,8-naphthyridin-2-yl)butyl)amino) butanoic Acid] | < 50
10 | O=C(O)[C@H](CCN(CCCCc1ccc2c(n1)NCCC2)CCOc1ccccc1)Nc1ncc(Br)cn1 [Compound 83, (S)-2-((5-bromopyrimidin-2-yl)amino)-4-((2-phenoxyethyl) (4-(5,6,7,8-tetrahydro-1,8-naphthyridin-2-yl)butyl)amino) butanoic Acid] | < 50
11 | COC[C@@H](F)CN(CCCCc1ccc2c(n1)NCCC2)CC[C@H](Nc1ncc(C(F)(F)F)cn1)C(=O)O [Compound 85, (S)-4-(((S)-2-fluoro-3-methoxypropyl) (4-(5,6,7,8-tetrahydro-1,8-naphthyridin-2-yl)butyl)amino)-2-((5-(trifluoromethyl)pyrimidin-2-yl)amino) butanoic Acid] | 250 to 1000

— patent US10793564B2, “Amino acid compounds and methods of use” (Pliant Therapeutics, Inc., priority 2018, dated 2020)
